Values joined by “and” are separate entries in the source; they are usually repeats but may differ in a detail not shown here. Equal entries are not always repeated.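 Exposure lasted 48 hours, with cells grown in 96-well plates and compounds tested at five concentrations. Here, GI50 denotes the concentration required for 50% inhibition of growth. TGI marks complete inhibition of growth.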 Bounds are passed on as bounds.

Holding throughout (test): NCI tumour cell line growth inhibition, 48 h
The test system of test [1] is RXF-631 renal.
In test [2] the test system is LXFL 529 NSCLC.
Test [3] has as its system XF 498 CNS.
The test system of test [4] is DLD-1 colon.
In test [5] the test system is DMS 273 small cell lung.
In test [6] the test system is SNB-78 CNS.
The test system of test [7] is HOP-18 NSCLC.
In test [8] the test system is BT-549 breast.
The test system of test [9] is P388 leukemia.
The subject of test [10] is MDA-N.
The test system of test [11] is P388/ADR leukemia.
Test [12] relates to SN12K1 renal.

With `O=C(c1ccccc1)C(c1ccccc1)C1(O)C(=O)Nc2ccccc21` (stereo not given), the TGI in test [1], in test [2], in [3], in test [4], in test [5] and in test [6] was above 100 µM throughout.

`CN1C(OCc2ccccc2)c2c(ccc3c2OCO3)C2C=Cc3cc4c(cc3C21)OCO4` (stereo not given): the TGI was found to be 2.09 µM in test [1]; 1.37 µM in [2]; 1.65 µM in test [4]; 2.04 µM in test [6]; 2.61 µM in test [7].

For `C[C@@H](C1CCC2C3C(=CC(=O)[C@@]21C)[C@H](C)[C@]1(CCC(=O)O1)C1OC31)[C@H]1C[C@]2(C)O[C@@](C)(O1)OC2(C)C` (stereo not given in full), the TGI in test [1], in test [2], in [3], in [4], in [5] and in [7] was above 100 µM throughout.

In the case of `CCCN(CCCN)/[N+]([O-])=N\O`, the TGI in test [1], in test [2], in test [4], in [5], in [6] and in [7] was above 100 µM throughout.

As to `COc1c(C2=NC(C(C)C)CO2)ccc2ccccc12` (stereo not given), the TGI in test [1], in [2], in test [3], in test [4], in [5] and in test [6] was above 100 µM each time.

Take `CC(C)N(C(=O)C12C3C4C5C3C1(C(=O)N(C(C)C)C(C)C)C5(C#N)C42)C(C)C` (stereo not given): the TGI is above 100 µM in test [1]; above 100 µM in test [2]; above 100 µM in test [3]; 66.5 µM in test [4]; above 100 µM in test [5]; above 100 µM in test [6]. Further, in test [7], the TGI was above 100 µM.

For the molecule `N=CCCN(CCC=N)c1ccc(/C=C2\CN(NC(=O)c3ccc(Cl)cc3)C(c3ccccc3)=N2)cc1`, the TGI in test [1], in [2], in test [4], in [5], in test [6] and in test [7] was above 100 µM in each case.

On to `CC(C)(C)N/N=C(\Cc1occc(=O)c1O)C(=O)Nc1ccc([N+](=O)[O-])cc1[N+](=O)[O-]`, for which the TGI in test [1], in test [2], in test [3], in test [5], in test [6] and in [7] was above 100 µM throughout.

For `COc1cc(=O)oc(/C=C/C=O)c1C`, the TGI stood at 27.9 µM in [1]; 32.4 µM in [2]; 32.4 µM in test [3]; 34.3 µM in test [4]; 32.8 µM in test [5]; 37.5 µM in test [7].

As for `O=C(CC(=O)c1ccc([N+](=O)[O-])cc1)C(=O)Nc1nccs1`, the TGI in test [1], in test [2], in test [3], in [4], in [5] and in test [6] was above 100 µM each time. Also, in test [7], the TGI is above 100 µM.

Turning to `CCCCSN1C(=O)c2ccccc2C1=S`, the TGI in test [1], in [3], in test [4], in test [5] and in test [6] was above 100 µM in each case.

Regarding `NC(C/[N+]([O-])=N/O)C(=O)O` (stereo not given), the GI50 in [8] was 4.46 µM and 9.57 µM and 9.78 µM. In addition, the TGI in test [8] was above 500 µM; in test [3], 40.1 µM; in test [4], above 500 µM; in [9], 337 µM; in test [10], above 500 µM; in [11], 336 µM. Besides, the TGI in test [5] was 50.4 µM; in [12], 257 µM; in test [6], above 500 µM; in [7] it was above 472 µM.

Regarding `C/C=C(\C)c1cc(=O)c2c(C)cc3c(c2o1)C(=O)c1c(O)c(C2CC(C)(N(C)C)C(O)C(C)O2)cc(C2CC(N(C)C)C(O)C(C)O2)c1C3=O` (stereo not given), the TGI in [8] is 0.735 µM; in test [4], above 35.2 µM; in [9], 5.36 µM; in test [10], 0.46 µM; in test [11], 67.9 µM; in test [5], 11.4 µM. Also, the TGI in test [12] is 2.52 µM; in test [6], 50.6 µM; in [7] it was above 100 µM.

Consider `Cc1ccc(NC(=O)CC/C(CC(=O)C(C)(C)C)=N/NC(=O)C(N)=O)cc1C`, for which the TGI in test [1], in test [2], in test [3], in [4], in [5] and in [6] was above 100 µM throughout. Moreover, the TGI in test [7] was above 100 µM.

Consider `N#CNC(N)=NCCO`, for which the TGI in [1], in test [2], in [3], in test [4], in test [5] and in [6] was above 100 µM in each case. For the same molecule, the TGI in test [7] was above 100 µM.

Consider `COC1C(O)C(C)OC(OC2C(Oc3cccc4c(O)c5c(=O)oc6ccc(C)c7c(=O)oc(c34)c5c67)OC(C)C3O[C@H](c4ccccc4)OC32)C1O` (stereo not given in full), for which the TGI in [1] turned out to be 2.37 µM; in [8], 6.27 µM; in test [2], 3.18 µM; in [3] it was 2.21 µM; in test [4] it was 8.67 µM; in [10] it was 10.4 µM. The TGI stood at 1.59 µM in [5], 4.73 µM in test [6] and 13.6 µM in test [7]. Also, the GI50 in [8] was 0.685 µM and 1.5 µM; in test [10], 327 nM.

Turning to `O=C(Cc1nc2ccccc2c(=O)n1-c1c(Cl)cccc1Cl)c1ccncc1`, the TGI in test [1] is 63.3 µM; in [2] it was above 100 µM; in [4] it was above 100 µM; in test [5], 40.6 µM; in [6], above 100 µM; in test [7], 93.1 µM.

Consider `CC1(C)CCC[C@@]2(C)C1C[C@H](O)[C@@]1(C)O[C@@](C)([C@H](O)CO)CCC21` (stereo not given in full), for which the TGI in [1], in [2], in test [3], in [5], in test [6] and in test [7] was above 100 µM in each case.

On to `Cc1ccc(C2CC(c3ccc([N+](=O)[O-])cc3)=Nc3ccccc3S2)cc1` (stereo not given), for which the TGI in [1] is above 100 µM; in test [2], 37.5 µM; in test [3], 55.7 µM; in [4], 85.5 µM; in test [7] it was above 100 µM.

Turning to `O=S1CSCS1` (stereo not given), the TGI in test [1], in test [2], in [3], in [4], in [5] and in test [6] was above 100 µM throughout. Further, the TGI in [7] was above 100 µM.

For the origin of these results see PubChem BioAssay (NCI).
